This note sets out measurements from patent US7829665B2 (priority 2005, dated 2010).

Like-named read-outs stand apart in the source and are kept apart here. Where only a bound is given, the exact number is not on record here.

In assay [1] the target is T1, full-length NS3/NS4A-2 (HCV NS3 protease) (Hepatitis C virus genotype 1a, UniProt P27958).
T1 construct: Recombinant E. coli or Baculovirus full-length NS3 was diluted to 3.33 μM with assay buffer; made in house; host or cells: E. coli or baculovirus (BV) expression system
T1 sequence (P27958 1027-1657): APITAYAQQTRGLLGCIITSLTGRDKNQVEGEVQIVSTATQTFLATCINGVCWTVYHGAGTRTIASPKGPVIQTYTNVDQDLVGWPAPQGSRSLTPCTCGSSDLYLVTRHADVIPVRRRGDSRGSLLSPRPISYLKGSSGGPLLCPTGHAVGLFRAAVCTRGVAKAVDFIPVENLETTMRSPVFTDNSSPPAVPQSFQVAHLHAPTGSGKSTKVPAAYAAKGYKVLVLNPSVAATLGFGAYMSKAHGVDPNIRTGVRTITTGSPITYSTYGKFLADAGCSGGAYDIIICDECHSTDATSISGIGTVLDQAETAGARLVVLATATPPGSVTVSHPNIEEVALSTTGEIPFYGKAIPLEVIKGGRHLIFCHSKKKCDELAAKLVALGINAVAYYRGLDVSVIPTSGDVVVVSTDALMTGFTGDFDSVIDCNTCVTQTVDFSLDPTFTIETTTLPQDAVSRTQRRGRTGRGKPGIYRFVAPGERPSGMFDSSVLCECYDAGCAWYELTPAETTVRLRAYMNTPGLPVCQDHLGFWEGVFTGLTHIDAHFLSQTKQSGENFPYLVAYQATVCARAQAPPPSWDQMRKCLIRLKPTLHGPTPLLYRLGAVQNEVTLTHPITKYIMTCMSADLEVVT
The assay can be described thus: NS3-NS4 protease assay / NS3 inhibition assay (RETS1 substrate, fluorescence kinetic read). Format: biochemical. The procedure, abridged:
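Full-length NS3 from E. coli (2 nM in assay) or baculovirus (3 nM) was precomplexed with excess NS4A-2 peptide, then preincubated 10 min at room temperature with serially diluted compounds starting at 50 microM. Reaction was started with RETS1 substrate at 8 μM before addition and read kinetically for 30 min (ex 335/em 495 nm). Four-parameter IC50s were converted to Ki by Cheng-Prusoff using Km 2.03 μM (E. coli) or 1.74 μM (BV).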

Assay [2] relates to HCV sub-genomic replicon in GS4.3 cells (HuH-7 hepatoma cells). The assay can be described thus: Quantitation by ELISA of Neomycin phosphotransferase II (NPTII) in the HCV sub-genomic replicon, GS4.3. Particulars: Hepatitis C virus. Format: cell-based, hepatitis C virus. The method, then: The HCV sub-genomic replicon (1377/NS3-3′, accession No. AJ242652), stably maintained in HuH-7 hepatoma cells, was created by Lohmann et al. Science 285: 110-113 (1999). The replicon-containing cell culture, designated GS4.3, was obtained from Dr. Christoph Seeger of the Institute for Cancer Research, Fox Chase Cancer Center, Philadelphia, Pa.
GS4.3 cells were maintained at 37° C., 5% CO2, in DMEM (Gibco 11965-092) supplemented with L-glutamine 200 mM (100×) (Gibco25030-081), non-essential amino acids (NEAA) (Biowhittaker 13-114E), heat-inactivated (HI) Fetal Bovine Serum (FBS) (Hyclone SH3007.03) and 750 μg/ml geneticin (G418) (Gibco 10131-035). Cells were sub-divided 1:3 or 4 every 2-3 days.
24 h prior to the assay, GS4.3 cells were collected, counted, and plated in 96-well plates (Costar 3585) at 7500 cells/well in 100 μl standard maintenance medium (above) and incubated in the conditions above. To initiate the assay, culture medium was removed, cells were washed once with PBS (Gibco 10010-023) and 90 μl Assay Medium (DMEM, L-glutamine, NEAA, 10% HI FBS, no G418) was added. Inhibitors were made as a 10× stock in Assay Medium, (3-fold dilutions from 10 μM to 56 pM final concentration, final DMSO concentration 1%), 10 μl were added to duplicate wells, plates were rocked to mix, and incubated as above for 72 h.
An NPTII Elisa kit was obtained from AGDIA, Inc. (Compound direct ELISA test system for Neomycin Phosphotransferase II, PSP 73000/4800). Manufacturer's instructions were followed, with some modifications. 10×PEB-1 lysis buffer was made up to include 500 μM PMSF (Sigma P7626, 50 mM stock in isopropanol). After 72 h incubation, cells were washed once with PBS and 150 μl PEB-1 with PMSF was added per well. Plates were agitated vigorously for 15 minutes, room temperature, then frozen at −70° C. Plates were thawed, lysates were mixed thoroughly, and 100 μl were applied to an NPTII Elisa plate. A standard curve was made. Lysate from DMSO-treated control cells was pooled, serially diluted with PEB-1 with PMSF, and applied to duplicate wells of the ELISA plate, in a range of initial lysate amount of 150 ul-2.5 ul. In addition, 100 μl buffer alone was applied in duplicate as a blank. Plates were sealed and gently agitated at room temperature for 2 h. Following capture incubation, the plates were washed 5×300 μl with PBS-T (0.5% Tween-20, PBS-T was supplied in the ELISA kit). For detection, a 1× dilution of enzyme conjugate diluent MRS-2 (5×) was made in PBS-T, into which 1:100 dilutions of enzyme conjugates A and B were added, as per instructions. Plates were resealed, and incubated with agitation, covered, room temperature, for 2 h. The washing was then repeated and 100 μl of room temperature TMB substrate was added. After approximately 30 minutes incubation (room temperature, agitation, covered), the reaction was stopped with 50 μl 3M sulfuric acid. Plates were read at 450 nm on a Molecular Devices Versamax plate reader.
Inhibitor effect was expressed as a percentage of DMSO-treated control signal, and inhibition curves were calculated using a 4-parameter equation: y=A+((B−A)/(1+((C/x)^D))), where C is half-maximal activity or EC50.
For orientation: An ELISA detects its analyte on a solid surface through an enzyme-linked reagent.

Setting [3] is: recombinant E. coli or Baculovirus full-length NS3 with NS4A-2, read-out: NS3-NS4 IC50.
The mark [4] stands for this setting: Huh-7, GS4.3 cells, 72 h incubation, NPTII ELISA, read-out: Replicon EC50.

Broadly, the IC50 is the concentration needed to halve the response being measured. By EC50 is commonly meant the concentration needed to bring the measured effect to its halfway point. Turning to `CC(C)(C)OC(=O)N[C@H]1CCCCC/C=C\[C@@H]2C[C@@]2(C(N)=O)NC(=O)[C@@H]2C[C@@H](OC(=O)N3Cc4cccc(F)c4C3)CN2C1=O` [Compound 648], in assay [1] (setting [3]), the IC50 was less than 1000 nM. The EC50 in assay [2] (setting [4]) was more than 10000 nM. For `CCOC(=O)[C@@]12C[C@H]1/C=C\CCCCC[C@H](N)C(=O)N1C[C@H](OC(=O)N3Cc4ccccc4C3)C[C@H]1C(=O)N2` [Compound 121], in that order: less than 1000 nM and less than 1000 nM. In the same order, the values of `CC(C)(C)OC(=O)N[C@H]1CCCCC/C=C\[C@@H]2C[C@@]2(C(=O)O)NC(=O)[C@@H]2C[C@@H](OC(=O)N3Cc4ccc(OCCNC5CC5)cc4C3)CN2C1=O` [Compound 131] are less than 100 nM and less than 10000 nM. For `CC(C)(C)OC(=O)N[C@H]1CCC(F)(F)CC/C=C\[C@@H]2C[C@@]2(C(=O)NS(=O)(=O)C2CC2)NC(=O)[C@@H]2C[C@@H](OC(=O)N3CCc4ccccc4C3)CN2C1=O` [Compound 1014], in that order: less than 100 nM and less than 100 nM. Regarding `CC(C)(C)OC(=O)N[C@H]1CCCCC/C=C\[C@@H]2C[C@@]2(C(=O)O)NC(=O)[C@@H]2C[C@@H](OC(=O)N3Cc4c(Cl)ccc(Cl)c4C3)CN2C1=O` [Compound 144], in assay [1] (setting [3]), the concentration for half-maximal inhibition (IC50) is less than 100 nM. Besides, in assay [2] (setting [4]), the EC50 was less than 10000 nM. For `CN(C)S(=O)(=O)NC(=O)[C@@]12C[C@H]1/C=C\CCC(F)(F)CC[C@H](NC(=O)OC(C)(C)C)C(=O)N1C[C@H](OC(=O)N3Cc4cccc(F)c4C3)C[C@H]1C(=O)N2` [Compound 1015], in that order: less than 100 nM and less than 100 nM.

Take `CC(C)(C)OC(=O)N[C@H]1CCOCC/C=C\[C@@H]2C[C@@]2(C(=O)O)NC(=O)[C@@H]2C[C@@H](OC(=O)N3Cc4cccc(F)c4C3)CN2C1=O` [Compound 1026]: in assay [1] (setting [3]), the IC50 was less than 100 nM. Besides, the EC50 in assay [2] (setting [4]) was less than 10000 nM.

For `CC(C)(C)OC(=O)N[C@H]1CCCCC/C=C\[C@@H]2C[C@@]2(C(=O)NCC2(O)CC2)NC(=O)[C@@H]2C[C@@H](OC(=O)N3Cc4cccc(F)c4C3)CN2C1=O` [Compound 619], the half-maximal inhibitory concentration (IC50) in assay [1] (setting [3]) is less than 100 nM. Moreover, the EC50 in assay [2] (setting [4]) is less than 1000 nM. In the same order, the values of `CC(C)(C)OC(=O)N[C@H]1CCCCC/C=C\[C@@H]2C[C@@]2(C(=O)NS(=O)(=O)C2CC2)NC(=O)[C@@H]2C[C@@H](OC(=O)N3CCc4c(F)ccc(F)c4C3)CN2C1=O` [Compound 258] are less than 100 nM and less than 100 nM. In the same order, the values of `CC(C)N(C)S(=O)(=O)NC(=O)[C@@]12C[C@H]1/C=C\CCCCC[C@H](NC(=O)OC(C)(C)C)C(=O)N1C[C@H](OC(=O)N3Cc4ccccc4C3)C[C@H]1C(=O)N2` [Compound 201] are less than 100 nM and less than 100 nM.

As for `CC(C)(C)OC(=O)N[C@H]1CCCOCCC[C@@H]2C[C@@]2(C(=O)NS(=O)(=O)C2CC2)NC(=O)[C@@H]2C[C@@H](OC(=O)N3Cc4cccc(F)c4C3)CN2C1=O` [Compound 1023, (2R,6S,13aR,14aR,16aS)-6-(tert-butoxycarbonylamino)-14a-(cyclopropylsulfonylcarbamoyl)-5,16-dioxohexadecahydro-1H-cyclopropa(e)pyrrolo[2,1-i][1,7,10]oxadiazacyclopentadecin-2-yl 4-fluoroisoindoline-2-carboxylate], in assay [1], the IC50 is less than 100 nM. In addition, the EC50 in assay [2] (setting [4]) was less than 1000 nM. On to `O=C(Cc1ccc(Cl)cc1)N[C@H]1CCCCC/C=C\[C@@H]2C[C@@]2(C(=O)NS(=O)(=O)C2CC2)NC(=O)C2CCCN2C1=O` (stereo partly drawn) [Compound 2143], for which the half-maximal inhibitory concentration (IC50) in assay [1] (setting [3]) was more than 10000 nM. For the same compound, the concentration giving a half-maximal response (EC50) in assay [2] (Huh-7, Table 26, read-out: EC50) is more than 10000 nM.

For `O=C1N[C@]2(C(=O)NS(=O)(=O)C3CC3)C[C@H]2/C=C\CCCCC[C@H](NC(=O)C2(O)CC2)C(=O)N2C[C@H](OC(=O)N3Cc4cccc(F)c4C3)C[C@@H]12` [Compound 249], the 50% inhibitory concentration (IC50) in assay [1] (setting [3]) was less than 100 nM. Moreover, in assay [2] (setting [4]), the concentration giving a half-maximal response (EC50) is less than 1000 nM.

`CNc1c(NC(=O)[C@@]23C[C@H]2/C=C\CCCCC[C@H](NC(=O)OC(C)(C)C)C(=O)N2C[C@H](OC(=O)N4Cc5cccc(F)c5C4)C[C@H]2C(=O)N3)c(=O)c1=O` [Compound 646]: the IC50 in assay [1] (setting [3]) was less than 1000 nM. The EC50 in assay [2] (setting [4]) was more than 10000 nM.

On to `Cc1ccc(CN[C@H]2CCCCC/C=C\[C@@H]3C[C@@]3(C(=O)NS(=O)(=O)C3CC3)NC(=O)[C@@H]3C[C@@H](OC(=O)N4Cc5cccc(F)c5C4)CN3C2=O)o1` [Compound 909], for which the IC50 in assay [1] (setting [3]) is less than 100 nM. In addition, the EC50 in assay [2] (setting [4]) was less than 100 nM. In the case of `CC(C)(C)OC(=O)N[C@H]1CCCCC/C=C\[C@@H]2C[C@@]2(C(=O)NS(=O)(=O)C2CC2)NC(=O)[C@@H]2C[C@@H](OC(=O)N3Cc4c(Cl)ccc(Cl)c4C3)CN2C1=O` [Compound 145], in assay [1] (setting [3]), the IC50 is less than 100 nM. Moreover, in assay [2] (setting [4]), the EC50 was less than 100 nM.

Turning to `CC(C)(C)OC(=O)N[C@H]1CCCCC/C=C\[C@@H]2C[C@@]2(C(=O)NCC(F)F)NC(=O)[C@@H]2C[C@@H](OC(=O)N3Cc4cccc(F)c4C3)CN2C1=O` [Compound 612], the IC50 in assay [1] (setting [3]) was less than 1000 nM. For the same compound, the 50% effective concentration (EC50) in assay [2] (setting [4]) is less than 1000 nM.

On to `CC(C)(C)OC(=O)N[C@H]1CCCCC/C=C\[C@@H]2C[C@@]2(C(=O)NS(=O)(=O)C2CC2)NC(=O)[C@@H]2C[C@@H](OC(=O)N3CCc4c(Cl)ccc(F)c4C3)CN2C1=O` [Compound 260], for which the IC50 in assay [1] (setting [3]) was less than 100 nM. Also, the 50% effective concentration (EC50) in assay [2] (setting [4]) was less than 100 nM.

Consider `O=C1N[C@]2(C(=O)NS(=O)(=O)C3CC3)C[C@H]2/C=C\CCCCC[C@H](NCCCC(F)(F)F)C(=O)N2C[C@H](OC(=O)N3Cc4cccc(F)c4C3)C[C@@H]12` [Compound 902], for which the IC50 in assay [1] (setting [3]) is less than 100 nM. The EC50 in assay [2] (setting [4]) is less than 100 nM. Regarding `CC(C)(C)OC(=O)N[C@H]1CCCCC/C=C\[C@@H]2C[C@@]2(C(=O)NS(=O)(=O)C2CC2)NC(=O)[C@@H]2C[C@@H](OC(=O)N3Cc4ccc(F)cc4C3)CN2C1=O` [Compound 111], in assay [1] (setting [3]), the concentration for half-maximal inhibition (IC50) is less than 100 nM. Further, the EC50 in assay [2] (setting [4]) was less than 100 nM. Turning to `CC(C)(C)OC(=O)N[C@H]1CCCCC/C=C\[C@@H]2C[C@@]2(C(=O)NCc2ccc(C(O)C(F)(F)F)cc2)NC(=O)[C@@H]2C[C@@H](OC(=O)N3Cc4cccc(F)c4C3)CN2C1=O` (stereo partly drawn) [Compound 606], the IC50 in assay [1] (setting [3]) was less than 1000 nM. For the same compound, the EC50 in assay [2] (setting [4]) was less than 1000 nM. Consider `CC(C)(C)OC(=O)N[C@H]1CCCCC/C=C\[C@@H]2C[C@@]2(C(=O)NS(=O)(=O)C2(C)CC2)NC(=O)[C@@H]2C[C@@H](OC(=O)N3Cc4ccccc4C3)CN2C1=O` [Compound 100, (1S,4R,6S,14S,18R)-1,3-Dihydro-isoindole-2-carboxylic acid 14-tert-butoxycarbonylamino-4-(1-methylcyclopropane-1-sulfonyl)aminocarbonyl-2,15-dioxo-3,16-diaza-tricyclo[14.3.0.0^4,6]nonadec-7-en-18-yl ester], for which the EC50 in assay [2] (Huh-7, 72 h, read-out: Replicon EC50) was less than 100 nM. For the compound `O=C(N[C@H]1CCCCC/C=C\[C@@H]2C[C@@]2(C(=O)NS(=O)(=O)C2CC2)NC(=O)[C@@H]2C[C@@H](OC(=O)N3Cc4cccc(F)c4C3)CN2C1=O)C(O)C(F)(F)F` (single isomer, unassigned) [Compound 247], the 50% effective concentration (EC50) in assay [2] (setting [4]) was less than 100 nM.

Take `C[C@@H](NC(=O)O[C@@H]1C[C@H]2C(=O)N[C@]3(C(=O)NS(=O)(=O)C4CC4)C[C@H]3/C=C\CCCCC[C@H](NC(=O)OC(C)(C)C)C(=O)N2C1)c1ccc(F)cn1` [Compound 150]: the EC50 in assay [2] (setting [4]) is more than 10000 nM.
